Data published in the supplement of paper PMC10307832.

Columns and labels:
Test in all cases: relative viability (nuclei count vs DMSO), 5 days (fraction); higher = more cells survive
HARA = tested on: HARA
Outline: (§1)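 Relative viability is defined as nuclei in treated wells over nuclei in vehicle wells. Duplicate plates were run and medians reported. Lung cancer cell lines in 1536-well plates were dosed by pin tool one day after seeding, with one drug or with a fixed anchor-drug dose plus five library-drug doses (not always all listed) in √10 steps, and nuclei were counted after 5 days.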

HCC-44 = tested on: HCC-44
Outline: as §1

NCI-H727 = tested on: NCI-H727
Outline: as §1

201T = tested on: 201T
Outline: as §1

EMC-BAC-2 = tested on: EMC-BAC-2
Outline: as §1

NCI-H596 = tested on: NCI-H596
Outline: as §1

NCI-H650 = tested on: NCI-H650
Outline: as §1

NCI-H838 = tested on: NCI-H838
Outline: as §1

NCI-H2087 = tested on: NCI-H2087
Outline: as §1

NCI-H23 = tested on: NCI-H23
Outline: as §1

NCI-H1395 = tested on: NCI-H1395
Outline: as §1

O=c1cc(N2CCOCC2)oc2c(-c3cccc4c3sc3ccccc34)cccc12 + NC(=O)Nc1cc(-c2cccc(F)c2)sc1C(=O)N[C@H]1CCCNC1 [AZD7762] (partner 0.2 µM)
relative viability (HARA; first compound 0.03162 µM): 0.303 | relative viability (HARA; first compound 0.1 µM): 0.302 | relative viability (HARA; first compound 0.3162 µM): 0.343 | relative viability (HARA; first compound 1 µM): 0.357 | relative viability (HCC-44; first compound 0.01 µM): 1.03 | relative viability (HCC-44; first compound 0.03162 µM): 1.08 | relative viability (HCC-44; first compound 0.1 µM): 0.973 | relative viability (HCC-44; first compound 0.3162 µM): 1.01 | relative viability (HCC-44; first compound 1 µM): 0.966 | relative viability (NCI-H727; first compound 0.01 µM): 0.583 | relative viability (NCI-H727; first compound 0.03162 µM): 0.486 | relative viability (NCI-H727; first compound 0.1 µM): 0.423 | relative viability (NCI-H727; first compound 0.3162 µM): 0.596 | relative viability (NCI-H727; first compound 1 µM): 0.575 | relative viability (201T; first compound 0.01 µM): 0.624 | relative viability (201T; first compound 0.03162 µM): 0.619 | relative viability (201T; first compound 0.1 µM): 0.615 | relative viability (201T; first compound 0.3162 µM): 0.585 | relative viability (201T; first compound 1 µM): 0.583 | relative viability (EMC-BAC-2; first compound 0.01 µM): 1.09 | relative viability (EMC-BAC-2; first compound 0.03162 µM): 1.17 | relative viability (EMC-BAC-2; first compound 0.1 µM): 1.19 | relative viability (EMC-BAC-2; first compound 0.3162 µM): 1.14 | relative viability (EMC-BAC-2; first compound 1 µM): 1.11 | relative viability (NCI-H596; first compound 0.01 µM): 1.19 | relative viability (NCI-H596; first compound 0.03162 µM): 1.2 | relative viability (NCI-H596; first compound 0.1 µM): 0.75 | relative viability (NCI-H596; first compound 0.3162 µM): 1.18 | relative viability (NCI-H596; first compound 1 µM): 1.08 | relative viability (NCI-H650; first compound 0.01 µM): 1.11 | relative viability (NCI-H650; first compound 0.03162 µM): 1.15 | relative viability (NCI-H650; first compound 0.3162 µM): 1.15 | relative viability (NCI-H650; first compound 1 µM): 1.24 | relative viability (NCI-H838; first compound 0.01 µM): 0.918 | relative viability (NCI-H838; first compound 0.03162 µM): 0.963 | relative viability (NCI-H838; first compound 0.1 µM): 0.934 | relative viability (NCI-H838; first compound 0.3162 µM): 0.93 | relative viability (NCI-H838; first compound 1 µM): 0.924 | relative viability (NCI-H2087; first compound 0.01 µM): 1.37 | relative viability (NCI-H2087; first compound 0.03162 µM): 1.23 | relative viability (NCI-H2087; first compound 0.1 µM): 1.44 | relative viability (NCI-H2087; first compound 0.3162 µM): 1.31 | relative viability (NCI-H2087; first compound 1 µM): 1.36 | relative viability (NCI-H23; first compound 0.01 µM): 0.306 | relative viability (NCI-H23; first compound 0.03162 µM): 0.309 | relative viability (NCI-H23; first compound 0.3162 µM): 0.307 | relative viability (NCI-H23; first compound 1 µM): 0.272 | relative viability (NCI-H1395; first compound 0.03162 µM): 0.403 | relative viability (NCI-H1395; first compound 0.1 µM): 0.357 | relative viability (NCI-H1395; first compound 0.3162 µM): 0.428 | relative viability (NCI-H1395; first compound 1 µM): 0.372
